Source: PubChem BioAssay AID248 (DTP/NCI, 2004)
“And” between values parts separate entries of the source, which are not always exact repeats. Identical values can stand only once. Inconclusive results and toxic doses are left out. Cut-off read from the data, not from the text of the source: active = T/C of 150% or more; inactive = T/C below 125%.

Tested on: L1210 leukemia ip in BDF1 mice, survival T/C
Assay: NCI In Vivo Anticancer Drug Screen. Data for tumor model L1210 Leukemia (intraperitoneal) in B6D2F1 (BDF1) mice
Conditions: endpoint: mean survival time, higher = longer survival
In short: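 In this screen, tumor-bearing mice given compound are compared to those given vehicle, and their survival values are reported as a treated-to-control quotient.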

[1] = dose: 100.0 mg/kg/injection, schedule: Q04DX003 (ip), vehicle: saline with Tween-80
[2] = dose: 200.0 mg/kg/injection, schedule: Q04DX003 (ip), vehicle: saline with Tween-80
[3] = dose: 400.0 mg/kg/injection, schedule: Q04DX003 (ip), vehicle: saline with Tween-80
[4] = dose: 200.0 mg/kg/injection, schedule: Q04DX003 (ip), vehicle: Klucel (hydroxypropylcellulose) (HPC)
[5] = dose: 400.0 mg/kg/injection, schedule: Q04DX003 (ip), vehicle: Klucel (hydroxypropylcellulose) (HPC)
[6] = dose: 100.0 mg/kg/injection, schedule: Q01DX001 (ip), vehicle: saline
[7] = dose: 200.0 mg/kg/injection, schedule: Q01DX001 (ip), vehicle: saline

Measured: T/C

COc1ccc2c(c1OC)CCN1C3=C(CC4(CC3)OCCO4)C(=O)CC21 (configuration not stated)
inactive: [1] 97 % of control | [2] 88 % of control | [3] 101 % of control

CC(C(=O)c1ccccc1)C(O)(C(F)(F)Cl)C(F)(F)Cl (configuration not stated)
inactive: dose: 100.0 mg/kg/injection, schedule: Q04DX003 (ip), vehicle: Klucel (hydroxypropylcellulose) (HPC) 91 % of control | [4] 91 % of control | [5] 91 % of control

Nc1ccc(CCCNc2c(N)nc(N)nc2-c2ccccc2)cc1
inactive: dose: 50.0 mg/kg/injection, schedule: Q01DX001 (ip), vehicle: saline 100 % of control | [6] 103 % of control | [7] 94 % of control

CC(=O)OCC1OC(Oc2c(C)cc([N+](=O)[O-])cc2[N+](=O)[O-])C(OC(C)=O)C(OC(C)=O)C1OC(C)=O (configuration not stated)
inactive: [1] 94 % of control | [2] 100 % of control | [3] 100 % of control

Nc1ncnc2c1nnn2CCCCCC(=O)O
inactive: [1] 100 % of control | [2] 101 % of control | [3] 97 % of control

NC(CSS(=O)(=O)O)=NCCCC1CCCCC1
inactive: dose: 6.25 mg/kg/injection, schedule: Q04DX002 (ip), vehicle: saline with Tween-80 97 % of control | dose: 12.5 mg/kg/injection, schedule: Q04DX002 (ip), vehicle: saline with Tween-80 101 % of control

CCCCCCCC(C)NCCO (configuration not stated)
inactive: dose: 75.0 mg/kg/injection, schedule: Q01DX001 (ip), vehicle: carboxymethylcellulose (CMC) 98 % of control

Cc1nc2c(nc1C)C(=O)C1C3c4ccccc4C(c4ccccc43)C1C2=O (configuration not stated)
inactive: [4] 93 % of control | [5] 93 % of control

NC(=S)N=Nc1c(O)n(C2OC(CO)C(O)C(O)C2O)c2ccccc12 (configuration not stated)
inactive: dose: 50.0 mg/kg/injection, schedule: Q01DX005 (ip), vehicle: saline 88 % of control | dose: 100.0 mg/kg/injection, schedule: Q01DX005 (ip), vehicle: saline 94 % of control

COC(=O)COc1ccc(Cl)c2ccccc12
inactive: dose: 50.0 mg/kg/injection, schedule: Q04DX002 (ip), vehicle: Klucel (hydroxypropylcellulose) (HPC) 89 % of control | dose: 100.0 mg/kg/injection, schedule: Q04DX002 (ip), vehicle: Klucel (hydroxypropylcellulose) (HPC) 96 % of control | dose: 200.0 mg/kg/injection, schedule: Q04DX002 (ip), vehicle: Klucel (hydroxypropylcellulose) (HPC) 99 % of control and 105 % of control | dose: 400.0 mg/kg/injection, schedule: Q04DX002 (ip), vehicle: Klucel (hydroxypropylcellulose) (HPC) 92 % of control

COc1cc(OC)c(/C=C/c2ccc3ccccc3[n+]2C)c(OC)c1
inactive: dose: 0.5 mg/kg/injection, schedule: Q01DX009 (oral), vehicle: carboxymethylcellulose (CMC) 104 % of control | dose: 1.0 mg/kg/injection, schedule: Q01DX009 (oral), vehicle: carboxymethylcellulose (CMC) 103 % of control | dose: 2.0 mg/kg/injection, schedule: Q01DX009 (oral), vehicle: carboxymethylcellulose (CMC) 111 % of control | dose: 4.0 mg/kg/injection, schedule: Q01DX009 (oral), vehicle: carboxymethylcellulose (CMC) 103 % of control | dose: 8.0 mg/kg/injection, schedule: Q01DX009 (oral), vehicle: carboxymethylcellulose (CMC) 103 % of control | dose: 31.3 micrograms/kg/injection, schedule: Q04DX003 (ip), vehicle: saline 100 % of control | dose: 62.5 micrograms/kg/injection, schedule: Q04DX003 (ip), vehicle: saline 101 % of control | dose: 125.0 micrograms/kg/injection, schedule: Q04DX003 (ip), vehicle: saline 95 % of control

CCOC(=O)c1cc([N+](=O)[O-])cnc1C
inactive: dose: 100.0 mg/kg/injection, schedule: Q01DX001 (ip), vehicle: saline sonified 96 % of control | dose: 200.0 mg/kg/injection, schedule: Q01DX001 (ip), vehicle: saline sonified 96 % of control | dose: 400.0 mg/kg/injection, schedule: Q01DX001 (ip), vehicle: saline sonified 97 % of control

S=C(NCc1ccccc1)Nc1ncn[nH]1
inactive: dose: 25.0 mg/kg/injection, schedule: Q01DX009 (ip), vehicle: saline 100 % of control | dose: 25.0 mg/kg/injection, schedule: Q04DX003 (ip), vehicle: saline 92 % of control | dose: 50.0 mg/kg/injection, schedule: Q01DX009 (ip), vehicle: saline 94 % of control | dose: 50.0 mg/kg/injection, schedule: Q04DX003 (ip), vehicle: saline 92 % of control | dose: 100.0 mg/kg/injection, schedule: Q01DX009 (ip), vehicle: saline 90 % of control | dose: 100.0 mg/kg/injection, schedule: Q04DX003 (ip), vehicle: saline 92 % of control

OCC1OC(n2cnc3c(Cl)ncnc32)C(O)C1O (configuration not stated)
inactive: dose: 62.5 mg/kg/injection, schedule: Q01DX009 (ip), vehicle: saline 96 % of control | dose: 62.5 mg/kg/injection, schedule: Q01DX010 (ip), vehicle: saline 102 % of control | dose: 62.5 mg/kg/injection, schedule: Q01DX Z (ip), vehicle: carboxymethylcellulose (CMC) 102 % of control | dose: 100.0 mg/kg/injection, schedule: Q01DX009 (ip), vehicle: Klucel (hydroxypropylcellulose) (HPC) 102 % of control | dose: 125.0 mg/kg/injection, schedule: Q01DX009 (ip), vehicle: saline 93 % of control and 89 % of control | dose: 125.0 mg/kg/injection, schedule: Q01DX010 (ip), vehicle: saline 89 % of control and 92 % of control | dose: 125.0 mg/kg/injection, schedule: Q01DX Z (ip), vehicle: carboxymethylcellulose (CMC) 96 % of control | dose: 250.0 mg/kg/injection, schedule: Q01DX009 (ip), vehicle: saline 96 % of control and 91 % of control | dose: 250.0 mg/kg/injection, schedule: Q01DX010 (ip), vehicle: saline 100 % of control and 92 % of control | dose: 250.0 mg/kg/injection, schedule: Q01DX Z (ip), vehicle: carboxymethylcellulose (CMC) 110 % of control | dose: 300.0 mg/kg/injection, schedule: Q01DX009 (ip), vehicle: Klucel (hydroxypropylcellulose) (HPC) 101 % of control | dose: 440.0 mg/kg/injection, schedule: Q01DX001 (ip), vehicle: carboxymethylcellulose (CMC) 96 % of control | dose: 500.0 mg/kg/injection, schedule: Q01DX009 (ip), vehicle: Klucel (hydroxypropylcellulose) (HPC) 100 % of control | dose: 500.0 mg/kg/injection, schedule: Q01DX009 (ip), vehicle: saline 96 % of control and 98 % of control | dose: 500.0 mg/kg/injection, schedule: Q01DX010 (ip), vehicle: saline 97 % of control and 88 % of control | dose: 500.0 mg/kg/injection, schedule: Q01DX Z (ip), vehicle: carboxymethylcellulose (CMC) 94 % of control | dose: 670.0 mg/kg/injection, schedule: Q01DX001 (ip), vehicle: carboxymethylcellulose (CMC) 95 % of control | dose: 1000.0 mg/kg/injection, schedule: Q01DX001 (ip), vehicle: carboxymethylcellulose (CMC) 95 % of control | dose: 1000.0 mg/kg/injection, schedule: Q01DX009 (ip), vehicle: Klucel (hydroxypropylcellulose) (HPC) 106 % of control | dose: 1500.0 mg/kg/injection, schedule: Q01DX001 (ip), vehicle: carboxymethylcellulose (CMC) 90 % of control | dose: 2250.0 mg/kg/injection, schedule: Q01DX001 (ip), vehicle: carboxymethylcellulose (CMC) 97 % of control

Clc1ccc(/C=N\Nc2c3ccccc3nc3ccccc23)cc1Cl
inactive: [6] 97 % of control | [7] 94 % of control | dose: 400.0 mg/kg/injection, schedule: Q01DX001 (ip), vehicle: saline 111 % of control

O=C1OC(=O)c2ccc3c4ccc5c6c(ccc(c7ccc1c2c73)c64)C(=O)OC5=O
inactive: dose: 100.0 mg/kg/injection, schedule: Q01DX001 (ip), vehicle: Klucel (hydroxypropylcellulose) (HPC) 97 % of control | dose: 200.0 mg/kg/injection, schedule: Q01DX001 (ip), vehicle: Klucel (hydroxypropylcellulose) (HPC) 97 % of control | dose: 400.0 mg/kg/injection, schedule: Q01DX001 (ip), vehicle: Klucel (hydroxypropylcellulose) (HPC) 95 % of control

CCCCCC[Si](Cl)(Cl)Cl
inactive: dose: 75.0 mg/kg/injection, schedule: Q01DX001 (ip), vehicle: saline 101 % of control | dose: 150.0 mg/kg/injection, schedule: Q01DX001 (ip), vehicle: saline 91 % of control
